Several values for one entry are separate records, joined by “and”; a condition that tells them apart may be missing. Equal values may be shown once.
What was measured:
[1] = test system: recombinant TEAD1 protein (194-411, Uniprot ID: P28347); assay: Thermal shift assay (protein melting point curve), TEAD1; format: binding; set-up: key to the marks not given beside the values; conditions: 10 μM TEAD protein, 50 μM test compound
Procedure: (§1) The ability of the compounds to increase the melting point of purified recombinant TEAD1/2/3/4 proteins is tested using a thermal shift assay. The strength of the compound's binding to the protein and the selectivity of the compound's binding to the four TEAD subtypes are evaluated by calculating the melting point shift ΔTm−° C. […] Based on the Δ Tm value, the ability of the compound to bind to the TEAD protein is divided into four levels: ++++, +++, ++, +.
(§2) Test method of protein melting point curve: 10 μL of the protein melting point curve experimental system (10 μM TEAD protein, 50 μM test compound, SYPRO® orange (55692, sigma)) is prepared in a 384-well fluorescence quantitative PCR plate according to the following system, and reacted at 4° C. in the dark for 20 minutes. On-machine reaction: ABI QuantStudio Dx fluorescence quantitative PCR instrument; program: from 25° C. to 80° C., increasing the temperature at a rate of 0.05° C./s, and reading the fluorescence channel signal of the corresponding wavelength of SYPRO® orange every second.

[2] = molecular target: recombinant TEAD2 protein (218-447, Uniprot ID: Q15562) (Homo sapiens (Human), UniProt Q15562); assay: Thermal shift assay (protein melting point curve), TEAD2; format: binding; conditions: 10 μM TEAD protein, 50 μM test compound
recombinant TEAD2 protein (218-447, Uniprot ID: Q15562), sequence (Q15562 218-447): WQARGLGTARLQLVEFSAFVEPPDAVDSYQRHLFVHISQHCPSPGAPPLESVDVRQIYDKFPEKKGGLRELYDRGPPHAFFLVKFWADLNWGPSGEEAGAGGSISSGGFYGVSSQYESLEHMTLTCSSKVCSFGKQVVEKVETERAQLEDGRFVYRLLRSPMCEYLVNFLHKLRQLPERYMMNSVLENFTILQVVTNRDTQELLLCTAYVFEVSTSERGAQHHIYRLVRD
Procedure: as §1, §2

[3] = molecular target: recombinant TEAD3 protein (218-435, Uniprot ID: Q99594) (Homo sapiens (Human), UniProt Q99594); assay: Thermal shift assay (protein melting point curve), TEAD3; format: binding; conditions: 10 μM TEAD protein, 50 μM test compound
recombinant TEAD3 protein (218-435, Uniprot ID: Q99594), sequence (Q99594 218-435): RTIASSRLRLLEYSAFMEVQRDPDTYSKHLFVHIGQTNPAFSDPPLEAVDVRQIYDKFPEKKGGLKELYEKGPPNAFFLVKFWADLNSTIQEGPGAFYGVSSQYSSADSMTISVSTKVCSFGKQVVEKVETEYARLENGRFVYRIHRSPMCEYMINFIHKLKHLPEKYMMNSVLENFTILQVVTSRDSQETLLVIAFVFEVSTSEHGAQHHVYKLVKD
Procedure: as §1, §2

[4] = molecular target: recombinant TEAD4 protein (217-434, Uniprot ID: Q15561) (Homo sapiens (Human), UniProt Q15561); assay: Thermal shift assay (protein melting point curve), TEAD4; format: binding; conditions: 10 μM TEAD protein, 50 μM test compound
recombinant TEAD4 protein (217-434, Uniprot ID: Q15561), sequence (Q15561 217-434): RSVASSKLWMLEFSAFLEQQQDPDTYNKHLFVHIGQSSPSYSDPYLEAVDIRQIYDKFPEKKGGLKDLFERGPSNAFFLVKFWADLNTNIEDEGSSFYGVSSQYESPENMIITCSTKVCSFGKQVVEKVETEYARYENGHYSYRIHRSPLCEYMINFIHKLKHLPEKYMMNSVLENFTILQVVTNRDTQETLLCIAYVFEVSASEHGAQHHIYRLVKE
Procedure: as §1, §2

[5] = molecular target: recombinant TEAD1 protein central pocket (Homo sapiens (Human), UniProt P28347); assay: Competitive thiol binding assay (CPM assay), TEAD1; conditions: 150 nM recombinant TEAD protein, 150 nM CPM
recombinant TEAD1 protein central pocket, sequence (P28347 whole entry): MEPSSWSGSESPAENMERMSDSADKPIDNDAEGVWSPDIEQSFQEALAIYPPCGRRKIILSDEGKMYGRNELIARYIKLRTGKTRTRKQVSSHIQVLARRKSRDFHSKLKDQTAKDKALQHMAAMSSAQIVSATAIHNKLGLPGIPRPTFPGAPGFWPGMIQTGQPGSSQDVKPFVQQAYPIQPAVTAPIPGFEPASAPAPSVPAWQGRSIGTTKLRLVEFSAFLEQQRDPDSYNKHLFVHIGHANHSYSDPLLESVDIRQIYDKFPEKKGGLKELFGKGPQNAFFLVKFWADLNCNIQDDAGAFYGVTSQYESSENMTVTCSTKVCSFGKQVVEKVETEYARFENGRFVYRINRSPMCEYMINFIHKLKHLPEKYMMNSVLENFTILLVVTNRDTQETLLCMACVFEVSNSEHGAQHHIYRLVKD
Procedure: (§3) Diluting the tested compound in gradient to 5 uL with buffer (25 mM HEPES, 150 mM NaCl, pH6.5), then adding 5 μL of the newly prepared 0.45 uM recombinant TEAD protein solution, and incubating at room temperature for 10 minutes. […] After shaking the plate at room temperature for 1 hour, measuring the fluorescence intensity (Ex/Em: 380/470 nm).

[6] = molecular target: recombinant TEAD4 protein central pocket (Homo sapiens (Human), UniProt Q15561); assay: Competitive thiol binding assay (CPM assay), TEAD4; conditions: 150 nM recombinant TEAD protein, 150 nM CPM
recombinant TEAD4 protein central pocket, sequence (Q15561 whole entry): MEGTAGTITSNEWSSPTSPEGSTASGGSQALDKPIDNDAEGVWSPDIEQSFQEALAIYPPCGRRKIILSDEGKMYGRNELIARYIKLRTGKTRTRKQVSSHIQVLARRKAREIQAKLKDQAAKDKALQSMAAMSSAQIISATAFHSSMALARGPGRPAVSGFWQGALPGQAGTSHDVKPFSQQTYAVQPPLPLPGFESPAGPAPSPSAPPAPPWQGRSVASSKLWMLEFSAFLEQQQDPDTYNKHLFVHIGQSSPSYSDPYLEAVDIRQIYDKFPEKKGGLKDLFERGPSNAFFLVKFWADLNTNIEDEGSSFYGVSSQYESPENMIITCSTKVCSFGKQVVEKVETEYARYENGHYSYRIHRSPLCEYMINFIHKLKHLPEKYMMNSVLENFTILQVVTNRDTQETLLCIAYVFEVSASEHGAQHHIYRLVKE
Procedure: as §3

TEAD family proteins = assay: Thermal shift assay, summary over all TEAD subtypes; format: binding; conditions: summary of Table 1
Procedure: as §1, §2

Caco-2 cells = assay: Permeability test on Caco2 cells; format: in vitro ADME
Procedure: After resuscitation, the Caco-2 cells are transferred to a conventional culture dish and cultured in a high-glucose DMEM medium (containing 10% FBS) at 37° C. and 5% CO2 in an incubator. When the cells cover 80% to 95% of the bottom of the dish, they are digested with trypsin containing 0.25% EDTA to disperse them into a single cell suspension, and the cell concentration is determined using a cell counter, after that, the concentration of the cell suspension is adjusted to 2 to 2.5×10^5/mL with fresh culture medium and inoculated into a Transwell polycarbonate membrane 12-well plate, the fresh culture medium is replaced every two days in the first two weeks and once a day in the last week, the culture is continued for 19 to 21 days to obtain a fully differentiated single cell layer.

[7] = In vitro liver microsome stability, mouse; format: in vitro ADME; conditions: for mouse half-life: mouse liver microsomes
Procedure: (§4) Testosterone is selected as the positive reference compound. The specific method is as follows:
(§5) Preparing 0.1MK3 PO4 (pH 7.4) buffer and 3×NADPH stock solution (6 mM, 5 mg/mL), and preheating in a 37° C. water bath; preparing spiking solution of tested compound and control compound: adding 5 μL compound stock solution (10 mM) to 95 μL acetonitrile; preparing 1.5 μM spiking solution in microsomes (0.75 mg/mL): add 1.5 μL spiking solution and 18.75 μL liver microsome solution (20 mg/mL) to 479.75 μL K3PO4 buffer; taking 30 μL spiking solution in microsomes and adding it to the multiwell plate, and incubating at 37° C. for 5 min; adding 15 μL of NADPH stock solution to each well, starting to react, and timing; adding 150 μL of acetonitrile solution containing IS at 0 min, 5 min, 15 min, 30 min, 45 min and 60 min respectively to terminate the reaction; after 10 min of oscillation, centrifuging the reaction at 6000 rpm for 15 min; taking 80 μL of supernatant from each well for LC/MS detection and calculating Ti/2.
(§6) Liver microsomes of mice, rats, dogs, and human used in the experiment are purchased from Xenotech.

[8] = In vitro liver microsome stability, human; format: in vitro ADME; conditions: for human half-life: human liver microsomes
Procedure: as §4, §5, §6

| SMILES | Δ T m (TEAD1) [1] | Δ T m (TEAD2) [2] | Δ T m (TEAD3) [3] | Δ T m (TEAD4) [4] | IC50 [5] | IC50 [6] | binding ability to each subtype of TEAD family proteins (TEAD family proteins) | Papp average value (Caco-2 cells; AP→BL, n = 2) | Papp (Caco-2 cells; AP→BL, single replicate) | Receiving chamber concentration Area ratio/OD (Caco-2 cells; AP→BL, single replicate) | Penetration Type (Caco-2 cells; Caco2 cell model) | metabolic stability ([7]; mouse liver microsome environment) | mouse half-life [7] | metabolic stability ([8]; human liver microsome environment) | human half-life [8] |
| --- | --- | --- | --- | --- | --- | --- | --- | --- | --- | --- | --- | --- | --- | --- | --- |
| CP(C)(=O)c1cc(-c2nccc(OC3COC3)n2)c(Nc2ccc(C(F)(F)F)cc2)s1 [Compound 24] | ++++ | ++ | + | ++++ | 180 nM | 290 nM | – | – | – | – | – | – | – | – | – |
| CP(C)(=O)c1ccc(Nc2ccc(C(F)(F)F)cc2)c(-c2nc(OC3COC3)cs2)c1 [Compound 7] | ++++ | ++ | ++ | ++++ | 170 nM | 250 nM | good binding abilities | – | – | – | – | – | – | – | – |
| CNC(=C[N+](=O)[O-])NCCSCc1ccc(CN(C)C)o1 [ranitidine] | – | – | – | – | – | – | – | 1.84 10^−6 cm/s | 1.99 10^−6 cm/s and 1.69 10^−6 cm/s | 3.32 and 2.82 | Medium | – | – | – | – |
| CP(C)(=O)c1ccc(Nc2ccc(C(F)(F)F)cc2)c(-c2nccc(OC3CCOC3)n2)c1 (stereo not shown) [Compound 18] | ++++ | + | + | +++ | 160 nM | 210 nM | – | – | – | – | – | – | – | – | – |
| Cn1cnc(-c2cc(P3(=O)CCNCC3)ccc2Nc2ccc(C(F)(F)F)cc2)c1 [Compound 1] | +++ | +++ | ++ | +++ | – | – | – | – | – | – | – | good metabolic stabilities | 1.56 h | good metabolic stabilities | 5.98 h |
| CP(C)(=O)c1ccc(Nc2ccc(C(F)(F)F)cc2)c(-c2nccc(N3CC[C@H](O)C3)n2)c1 [Compound 9] | +++ | ++ | + | +++ | – | – | – | – | – | – | – | – | 1.43 h | – | 0.488 h |
| CCP(=O)(CC)c1ccc(Nc2ccc(C(F)(F)F)cc2)c(-c2nccc(OC3COC3)n2)c1 [Compound 66] | ++++ | + | + | ++++ | 140 nM | – | – | – | – | – | – | – | – | – | – |
| CP(C)(=O)c1ccc(Nc2ccc(C(F)(F)F)cc2)c(-c2nnc(NCCO)o2)c1 [Compound 12] | ++ | + | + | + | – | – | – | – | – | – | – | – | – | – | – |
| CP(C)(=O)c1ccc(Nc2ccc(C(F)(F)F)cc2)c(-c2ncn3ccccc23)c1 [Compound 40] | ++ | ++ | ++ | ++ | – | – | – | – | – | – | – | – | – | – | – |
| CP(C)(=O)c1ccc(Nc2ccc(C(F)(F)F)cc2)c(-c2nccc(OCCO)n2)c1 [Compound 19] | ++ | ++ | ++ | + | – | – | – | – | – | – | – | – | – | – | – |
| CP(C)(=O)c1ccc(NC2CCC(F)(F)CC2)c(-c2nccc(OC3COC3)n2)c1 [Compound 30] | +++ | + | + | ++ | 690 nM | 810 nM | – | – | – | – | – | – | – | – | – |
| Cc1nc(-c2cc(P(C)(C)=O)ccc2NCc2ccc(C(F)(F)F)cc2)no1 [Compound 5] | ++++ | +++ | ++ | ++++ | – | – | – | – | – | – | – | – | – | – | – |
| CP(C)(=O)c1ccc(Nc2ccc(S(F)(F)(F)(F)F)cc2)c(-c2nccc(OC3COC3)n2)c1 [Compound 74] | ++++ | + | + | ++++ | 190 nM | 210 nM | – | – | – | – | – | – | – | – | – |

Source: patent US20260055126A1, “SMALL MOLECULE COMPOUNDS WITH PHOSPHORYLATED ARYL STRUCTURES AND USE THEREOF” (HANGZHOU PHECDAMED CO., LTD., priority 2022, published 2026)
